# Test: recombinant UMI read abundance after kanamycin selection (control-corrected) (log10(CPM+1)); higher = more efficient recombination; extreme values may be limits of the assay; sequences stand for … in AGTGCAGAGAAAATCGGCCAGTTTTCTCTGCCTGCAGTCCGCATGCCGTGGGACCCCTTGGGTTCTAACCTGTTGCCTAGATTTATGCAGCGGACTGCCTTTCTCCCAAAGTGATAAACCGG…AGGTTGGTTTCACT; site = the 11-nt donor
# Method in brief: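 Sequenced counts of recombinant UMIs were turned into CPM, averaged across replicates and scaled with control-derived factors. The reported figure is log10(CPM+1). Those UMIs, each 12 nt long, tagged donor and donor-binding-loop pairs on a plasmid with a promoterless kanamycin gene, screened as a pool in Escherichia coli with IPTG (0.07 mM) plus kanamycin or without selection.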
# 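Also: IS621 bridge recombinase in Escherichia coli cells against a fixed T5 target plasmid.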
row,Sequence,recombinant UMI read abundance (log10)
1,AGACGAGCATGGACCGGTTTTCCCGGTAATCCGTATTTGCG (site AGACGAGCTCG),2.67
2,CCAGGTCCATGGACCGGTTTTCCCGGTAATCCGTATTTGAT (site CCAGGTGCTAT),0
3,CAGTCGACATGGACCGGTTTTCCCGGTAATCCGTATTTGTG (site CAGTCGACTCT),0.00896
4,CACTTGGCATGGACCGGTTTTCCCGGTAATCCGTATTTGGT (site CACTTGGCTTC),0.0133
5,CAAGCAGCATGGACCGGTTTTCCCGGTAATCCGTATTTGAT (site CAAGCAGCTAC),0.271
6,GGTACATCATGGACCGGTTTTCCCGGTAATCCGTATTTGTT (site GGTACATCTAA),0.0632
7,GTTCTCTCATGGACCGGTTTTCCCGGTAATCCGTATTTGTA (site GTTCTCTCTTA),1.83
8,CATCGGGCATGGACCGGTTTTCCCGGTAATCCGTATTTGCC (site CATCGGGCTGG),1.31
9,TCGACGGCATGGACCGGTTTTCCCGGTAATCCGTATTTGAC (site TCGACGGCTGT),0.0562
10,TTGGCGGCATGGACCGGTTTTCCCGGTAATCCGTATTTGCT (site TTGGCGGCTAG),1.44
11,GCTAGTGCATGGACCGGTTTTCCCGGTAATCCGTATTTGGT (site ACTAGTGCTAC),1.31
12,CGTTAGCCATGGACCGGTTTTCCCGGTAATCCGTATTTGAG (site CGTTAGTCTCT),0.737
13,TAATGGGCATGGACCGGTTTTCCCGGTAATCCGTATTTGGG (site TAATGTGCTCC),0.0203
14,AGCCTGTCATGGACCGGTTTTCCCGGTAATCCGTATTTGAC (site AGCCTATCTGT),0
15,TGGCCGGCATGGACCGGTTTTCCCGGTAATCCGTATTTGGA (site TGGCCGGCTGC),0
16,CAGCTAGCATGGACCGGTTTTCCCGGTAATCCGTATTTGAA (site CAGCTAGCTTT),2.54
17,CAGTCCTCATGGACCGGTTTTCCCGGTAATCCGTATTTGCC (site CATTCCTCTGG),0.879
18,ACAGCTTCATGGACCGGTTTTCCCGGTAATCCGTATTTGGC (site ACAGCTTCTGC),3.35
19,CCCAATTCATGGACCGGTTTTCCCGGTAATCCGTATTTGCC (site CCCAATTCTGG),0.628

row,Sequence,recombinant UMI read abundance (log10)
1,CACGGCCCATGGACCGGTTTTCCCGGTAATCCGTATTTGTT (site CACGGACCTAA),0.0168
2,TGAGGACCATGGACCGGTTTTCCCGGTAATCCGTATTTGGG (site GGAGGACCTCC),0.0165
3,CGAAGGACATGGACCGGTTTTCCCGGTAATCCGTATTTGGT (site CGAAGGACTAC),1.65
4,CGGCCATCATGGACCGGTTTTCCCGGTAATCCGTATTTGCT (site CGGACATCTAG),0
5,TAGCTAGCATGGACCGGTTTTCCCGGTAATCCGTATTTGAG (site TAGCTAGCTCT),0.921
6,CCAGAGACATGGACCGGTTTTCCCGGTAATCCGTATTTGCG (site CCAGAGACTCG),1.76
7,GGGGCGCCATGGACCGGTTTTCCCGGTAATCCGTATTTGCA (site GGGGCTCCTTG),0
8,CTAGTATCATGGACCGGTTTTCCCGGTAATCCGTATTTGAC (site CTAGACTCTGT),0
9,AATGTATCATGGACCGGTTTTCCCGGTAATCCGTATTTGAC (site AATGTGTCTGT),0
10,GTATTCACATGGACCGGTTTTCCCGGTAATCCGTATTTGTA (site GTATGCACTTA),0.0233
11,CCGGCATCATGGACCGGTTTTCCCGGTAATCCGTATTTGCG (site CCGGCATCTCG),0
12,CCCATACCATGGACCGGTTTTCCCGGTAATCCGTATTTGTC (site CCCATACCTGA),0
13,CGGGACTCATGGACCGGTTTTCCCGGTAATCCGTATTTGCC (site CGGGAGTCTGG),0
14,TCAGAGACATGGACCGGTTTTCCCGGTAATCCGTATTTGCG (site TTAGAGACTCG),1.56
15,CCCCACACATGGACCGGTTTTCCCGGTAATCCGTATTTGTC (site CCCCACACTAA),0.316
16,CCGTTAACATGGACCGGTTTTCCCGGTAATCCGTATTTGCT (site CCGTTCACTAG),0
17,CGCCTAGCATGGACCGGTTTTCCCGGTAATCCGTATTTGTC (site TTGAATACTAG),0
18,TAAGCTCCATGGACCGGTTTTCCCGGTAATCCGTATTTGCG (site TAAGCTCCTCG),0.303
19,ATATGGCCATGGACCGGTTTTCCCGGTAATCCGTATTTGAC (site ATAAGGCCTGT),0

row,Sequence,recombinant UMI read abundance (log10)
1,TCGCATGCATGGACCGGTTTTCCCGGTAATCCGTATTTGGT (site TCGCATGCTAC),0.656
2,CGTAAGACATGGACCGGTTTTCCCGGTAATCCGTATTTGAG (site CGTGAGACTCT),0.0574
3,ATGCCATCATGGACCGGTTTTCCCGGTAATCCGTATTTGCA (site ATGCCATCTTG),1.98
4,GGGGCACCATGGACCGGTTTTCCCGGTAATCCGTATTTGTA (site GGGGCACCTTG),0.00274
5,CTAGTATCATGGACCGGTTTTCCCGGTAATCCGTATTTGAC (site CTGGTTTCTGT),0
6,TCCAAGTCATGGACCGGTTTTCCCGGTAATCCGTATTTGCC (site TCCAAATCTGG),0
7,CACGGCCCATGGACCGGTTTTCCCGGTAATCCGTATTTGTT (site GACGGCCCTAA),0.0197
8,CCAGCGCCATGGACCGGTTTTCCCGGTAATCCGTATTTGTG (site CTAGCGCCTCA),0
9,CAAGCAGCATGGACCGGTTTTCCCGGTAATCCGTATTTGCT (site CAGGCAGCTAG),0.00336
10,GTAGTCCCATGGACCGGTTTTCCCGGTAATCCGTATTTGGT (site GTAGTCCCTAC),0.588
11,CGTTAGACATGGACCGGTTTTCCCGGTAATCCGTATTTGCG (site CGTTAGACTCC),0.0162
12,CTAGTATCATGGACCGGTTTTCCCGGTAATCCGTATTTGAC (site CTCGAATCTGT),0
13,CGTGGAACATGGACCGGTTTTCCCGGTAATCCGTATTTGTT (site CGTGGAACTAA),1.72
14,CCGTTTACATGGACCGGTTTTCCCGGTAATCCGTATTTGGT (site CCGTTTACTAA),0.00739
15,GGTGGAACATGGACCGGTTTTCCCGGTAATCCGTATTTGTT (site AGTGGAACTAA),0.371
16,TAGGAAGCATGGACCGGTTTTCCCGGTAATCCGTATTTGCG (site TAGGAAGCTCG),2.73
17,CGCCGGGCATGGACCGGTTTTCCCGGTAATCCGTATTTGAC (site CGCCGGGCTGT),1.46
18,AATGTAACATGGACCGGTTTTCCCGGTAATCCGTATTTGCA (site AATGTAACTAG),0
19,CAATTCCCATGGACCGGTTTTCCCGGTAATCCGTATTTGCT (site CGATTCCCTAG),0
